Experimental data published in ChEMBL document CHEMBL3046831, “Novel PCU cage diol peptides as potential targets against wild-type CSA HIV-1 protease: synthesis, biological screening and molecular modelling studies” (Med Chem Res, 2013).

molecular target: T1, Protease (Human immunodeficiency virus 1, UniProt Q9YQ12); assay: Inhibition of wild type C-South African Human immunodeficiency virus 1 protease using chromogenic peptide H-1048 as substrate by UV spectrophotometric analysis; parameters: species or system C-SA
T1 sequence (Q9YQ12 whole entry): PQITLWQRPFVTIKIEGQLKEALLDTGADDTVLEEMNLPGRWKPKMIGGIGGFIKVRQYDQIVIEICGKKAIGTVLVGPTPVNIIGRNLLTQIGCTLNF

Compound	IC50
O=C(CC1(O)C2C3CC4C5C3C1C5C(O)(CC(=O)N[C@H](C(=O)O)c1ccccc1)C42)N[C@H](C(=O)O)c1ccccc1 (some centres not stated)	5 µM
O=C(O)CN(Cc1ccccc1)C(=O)CC1(O)C2C3CC4C5C3C1C5C(O)(CC(=O)N(CC(=O)O)Cc1ccccc1)C42 (configuration not stated)	> 60 µM
CC(C)[C@H](NC(=O)CC1(O)C2C3CC4C5C3C1C5C(O)(CC(=O)N[C@H](C(=O)O)C(C)C)C42)C(=O)O (some centres not stated)	10 µM
O=C(CC1(O)C2C3CC4C5C3C1C5C(O)(CC(=O)N[C@@H](Cc1ccc(O)cc1)C(=O)O)C42)N[C@@H](Cc1ccc(O)cc1)C(=O)O (some centres not stated)	10 µM
O=C(O)[C@@H]1CCCN1C(=O)CC1(O)C2C3CC4C5C3C1C5C(O)(CC(=O)N1CCC[C@H]1C(=O)O)C42 (some centres not stated)	> 60 µM
O=C(CC1(O)C2C3CC4C5C3C1C5C(O)(CC(=O)N[C@@H](Cc1ccccc1)C(=O)O)C42)N[C@@H](Cc1ccccc1)C(=O)O (some centres not stated)	> 60 µM
NC(=O)[C@@H]1CCCN1C(=O)CC1(O)C2C3CC4C5C3C1C5C(O)(CC(=O)N1CCC[C@H]1C(N)=O)C42 (some centres not stated)	> 60 µM
O=C(CC1(O)C2C3CC4C5C3C1C5C(O)(CC(=O)N[C@@H](Cc1c[nH]c3ccccc13)C(=O)O)C42)N[C@@H](Cc1c[nH]c2ccccc12)C(=O)O (some centres not stated)	5 µM
O=C(CC1(O)C2C3CC4C5C3C1C5C(O)(CC(=O)N[C@@H](Cc1c[nH]cn1)C(=O)O)C42)N[C@@H](Cc1c[nH]cn1)C(=O)O (some centres not stated)	> 60 µM

molecular target: T1, Protease; assay: Inhibition of Human immunodeficiency virus 1 protease

Compound	Ki
Nc1cccc(CN2C(=O)N(Cc3cccc(N)c3)[C@H](Cc3ccccc3)[C@H](O)[C@@H](O)[C@H]2Cc2ccccc2)c1 [MOZENAVIR]	0.3 nM

molecular target: T1, Protease; assay: Inhibition of wild type C-South African Human immunodeficiency virus 1 protease; parameters: species or system C-SA

Compound	IC50
CC(C)[C@H](NC12OC3(O)C4C5CC(C6C5C3C61)C42)C(=O)N[C@@H](C)C(=O)O (some centres not stated)	600 nM
CC[C@H](C)[C@H](NC(=O)[C@H](C)NC(=O)[C@H](CCC(=O)O)NC12NC(=O)C3(O)C4C5CC(C6C5C3C61)C42)C(=O)N[C@@H](CO)C(=O)O (some centres not stated)	78 nM
